Experimental data from patent US20250186436A1 (4E Therapeutics, Inc., priority 2021, published 2025).
Where “and” joins values, the source holds several entries; their conditions need not be identical. Equal values may be shown once. Read-outs that look alike come from different tables or passages of the source.

Columns and labels:
Assay type in all cases: in vivo
[1] = PK study in male Sprague-Dawley rats dosed once per day for five days, PO 10 mg/kg, 0.5% HPMC (Example 7); conditions: 0.5% HPMC suspension
Procedure: Example 7. PK study of 4ET-03-053 in male Sprague-Dawley rats dosed once per day for five days (P0; 10 mg/kg; 0.5%0HPMC aqueous suspension)
Table 21 provides plasma and brain concentrations at 24 hr after the last dose of five daily P0 doses of 4ET-03-053.

[2] = system: IL-6 evoked grimace in ICR mice; assay: IL-6 evoked grimace test; conditions: PO 1 hr prior to IL-6 (4ET-03-053: 10 mg/kg)
Procedure: Male and female Institute for Cancer Research (ICR) mice were used in these experiments. Mice were bred in house at University of Texas at Dallas and used at between 12 and 24 weeks of age. Mice were habituated to plexiglass boxes of approximately 4×6 inches in size with openable tops. Habituation took place over 2 days with animals exposed to the boxes for at least 30 min. A blinded observer scored baseline grimacing using the method previously described by Mogil and colleagues (Langford D J, et al. “Coding of facial expressions of pain in the laboratory mouse” Nat Methods 7:447-449 (2010)). On test day, mice were given test compounds 1 hr prior to injection of interleukin 6 (human recombinant IL-6, R&D Systems) which was given at a dose of 0.1 ng in saline via an intraplantar injection as described previously (Moy J K, et al. “The MNK-eIF4E Signaling Axis Contributes to Injury-Induced Nociceptive Plasticity and the Development of Chronic Pain” J Neurosci. 37:7481-7499 (2017)). Test compounds were given orally (PO) via a flexible oral gavage canula built for mice. 4ET-03-053 is efficacious in the IL-6 evoked grimace test in mice (PO; 10 mg/kg).
Effect sizes were calculated per mouse by subtracting the baseline grimace score from the sum of the grimace scores for 1 and 3 hr time points.

[3] = PK study in male Sprague-Dawley rats dosed once per day for five days, PO 10 mg/kg, 0.5% HPMC (Example 7); conditions: 0.5% HPMC suspension; remark: listed apart in the source
[4] = Sprague-Dawley rats, day five of daily PO 10 mg/kg, individual animals, 10 mg/kg
[5] = Sprague-Dawley rats, day five of daily PO 10 mg/kg, mean (n = 3)
[6] = male Sprague-Dawley rats, single PO 10 mg/kg dose, individual animals, 10 mg/kg
[7] = male Sprague-Dawley rats, single PO 10 mg/kg dose, mean (n = 3)
[8] = male, Sprague-Dawley, rat, in vivo, po, 10 mg/kg, Sprague-Dawley rats, day five of daily PO 10 mg/kg, individual animals
[9] = male, Sprague-Dawley, rat, in vivo, po, 10 mg/kg, Sprague-Dawley rats, day five of daily PO 10 mg/kg, mean (n = 3)
[10] = male, Sprague-Dawley, rat, in vivo, po, 10 mg/kg, male Sprague-Dawley rats, single PO 10 mg/kg dose, individual animals
[11] = male, Sprague-Dawley, rat, in vivo, po, 10 mg/kg, male Sprague-Dawley rats, single PO 10 mg/kg dose, mean (n = 3)

## Cc1cc(Nc2cc(N)ncn2)c(=O)n2c1C(=O)NC21CCC2(CC2)CC1 [4ET-03-053, 6″-((6-Aminopyrimidin-4-yl)amino)-8″-methyl-2″H-dispiro[cyclopropane-1,1′-cyclohexane-4′,3″-imidazo[1,5-a]pyridine]-1″,5″-dione]
[1]; [4]
  Cmax/D: 2460 kg/kL and 1880 kg/kL and 2510 kg/kL
  F: 50.2% and 61.8% and 67.6%
  MRTinf: 9.17 h and 9.18 h
  t1/2: 7.19 h and 6.73 h
[1]; [5]
  AUCinf/D: 30825 kg·h/kL
  Cmax/D: 2283 kg/kL
  F: 59.9%
[1]; Sprague-Dawley rats, following five daily PO doses of 10 mg/kg
  time to peak plasma concentration: ≤ 2 h
[1]; [6]
  AUCinf: 308.776 µg·h/mL and 251.304 µg·h/mL
  AUCinf/D: 25525 kg·h/kL and 30878 kg·h/kL and 25130 kg·h/kL
  AUClast: 296.855 µg·h/mL and 240.643 µg·h/mL
  Clast: 1120 ng/mL and 1560 ng/mL
  Cmax: 19900 ng/mL and 21800 ng/mL
  Cmax/D: 2510 kg/kL and 1990 kg/kL and 2180 kg/kL
  F: 49.6% and 60.0% and 48.8%
  MRTinf: 7.59 h and 7.51 h
[1]; [7]
  AUCinf/D: 27178 kg·h/kL
  Cmax/D: 2227 kg/kL
  F: 52.8%
[1]; [8]
  AUC(0-t): 234 µg·h/mL
  MRT inf: 9.79 h
  Tmax: 2 h
[1]; male, Sprague-Dawley, rat, in vivo, po, 10 mg/kg, Sprague-Dawley rats, day five of daily PO 10 mg/kg, individual animals, read-out: AUCinf
  AUC(0-inf): 259 µg·h/mL
[1]; male, Sprague-Dawley, rat, in vivo, po, 10 mg/kg, Sprague-Dawley rats, day five of daily PO 10 mg/kg, individual animals, read-out: Clast
  concentration at 24 h: 2880 ng/mL
[1]; male, Sprague-Dawley, rat, in vivo, po, 10 mg/kg, Sprague-Dawley rats, day five of daily PO 10 mg/kg, individual animals, read-out: Cmax
  Cmax: 24600 ng/mL
[1]; male, Sprague-Dawley, rat, in vivo, po, 10 mg/kg, Sprague-Dawley rats, day five of daily PO 10 mg/kg, individual animals, read-out: t1/2 (converted)
  half-life: 6.54 h
[1]; [9]
  AUC(0-t): 282 µg·h/mL
  MRT inf: 9.38 h
  Tmax: 1.67 h
[1]; male, Sprague-Dawley, rat, in vivo, po, 10 mg/kg, Sprague-Dawley rats, day five of daily PO 10 mg/kg, mean (n = 3), read-out: AUCinf
  AUC(0-inf): 308 µg·h/mL
[1]; male, Sprague-Dawley, rat, in vivo, po, 10 mg/kg, Sprague-Dawley rats, day five of daily PO 10 mg/kg, mean (n = 3), read-out: Clast
  concentration at 24 h: 2670 ng/mL
[1]; male, Sprague-Dawley, rat, in vivo, po, 10 mg/kg, Sprague-Dawley rats, day five of daily PO 10 mg/kg, mean (n = 3), read-out: Cmax
  Cmax: 22800 ng/mL
[1]; male, Sprague-Dawley, rat, in vivo, po, 10 mg/kg, Sprague-Dawley rats, day five of daily PO 10 mg/kg, mean (n = 3), read-out: t1/2 (converted)
  half-life: 6.82 h
[1]; male, Sprague-Dawley, rat, in vivo, po, 10 mg/kg, Sprague-Dawley rats, following five daily PO doses of 10 mg/kg
  bioavailability: 59.9%
[1]; male, Sprague-Dawley, rat, in vivo, po, 10 mg/kg, Sprague-Dawley rats, following five daily PO doses of 10 mg/kg, at 24 hr, read-out: last measurable concentration
  concentration at 24 h: 2670 ng/mL
[1]; male, Sprague-Dawley, rat, in vivo, po, 10 mg/kg, Sprague-Dawley rats, following five daily PO doses of 10 mg/kg, read-out: peak plasma concentration (Cmax)
  Cmax: 22800 ng/mL
[1]; male, Sprague-Dawley, rat, in vivo, po, 10 mg/kg, Sprague-Dawley rats, following five daily PO doses of 10 mg/kg, read-out: terminal half-life (converted)
  half-life: 6.82 h
[1]; male, Sprague-Dawley, rat, in vivo, po, 10 mg/kg, Sprague-Dawley rats, following five daily PO doses of 10 mg/kg, read-out: total systemic exposure (AUCinf)
  AUC(0-inf): 308 µg·h/mL
[1]; [10]
  AUC(0-t): 247 µg·h/mL
  MRT inf: 7.18 h
  Tmax: 2 h
[1]; male, Sprague-Dawley, rat, in vivo, po, 10 mg/kg, male Sprague-Dawley rats, single PO 10 mg/kg dose, individual animals, read-out: AUCinf
  AUC(0-inf): 255 µg·h/mL
[1]; male, Sprague-Dawley, rat, in vivo, po, 10 mg/kg, male Sprague-Dawley rats, single PO 10 mg/kg dose, individual animals, read-out: Clast
  concentration at 24 h: 1330 ng/mL
[1]; male, Sprague-Dawley, rat, in vivo, po, 10 mg/kg, male Sprague-Dawley rats, single PO 10 mg/kg dose, individual animals, read-out: Cmax
  Cmax: 25100 ng/mL
[1]; male, Sprague-Dawley, rat, in vivo, po, 10 mg/kg, male Sprague-Dawley rats, single PO 10 mg/kg dose, individual animals, read-out: t1/2 (converted)
  half-life: 5.38 h
[1]; [11]
  AUC(0-t): 262 µg·h/mL
  Tmax: 1.67 h
[1]; male, Sprague-Dawley, rat, in vivo, po, 10 mg/kg, male Sprague-Dawley rats, single PO 10 mg/kg dose, mean (n = 3), read-out: AUCinf
  AUC(0-inf): 272 µg·h/mL
[1]; male, Sprague-Dawley, rat, in vivo, po, 10 mg/kg, male Sprague-Dawley rats, single PO 10 mg/kg dose, mean (n = 3), read-out: Clast
  concentration at 24 h: 1340 ng/mL
[1]; male, Sprague-Dawley, rat, in vivo, po, 10 mg/kg, male Sprague-Dawley rats, single PO 10 mg/kg dose, mean (n = 3), read-out: Cmax
  Cmax: 22300 ng/mL
[1]; male, Sprague-Dawley, rat, in vivo, po, 10 mg/kg, male Sprague-Dawley rats, single PO 10 mg/kg dose, mean (n = 3), read-out: t1/2 (converted)
  half-life: 5.11 h
[1]; male, Sprague-Dawley, rat, in vivo, po, 10 mg/kg, male Sprague-Dawley rats, single PO 10 mg/kg
  bioavailability: 52.8%
[1]; male, Sprague-Dawley, rat, in vivo, po, 10 mg/kg, male Sprague-Dawley rats, single PO 10 mg/kg, at 24 hr, read-out: last measurable concentration
  concentration at 24 h: 1340 ng/mL
[1]; male, Sprague-Dawley, rat, in vivo, po, 10 mg/kg, male Sprague-Dawley rats, single PO 10 mg/kg, read-out: peak plasma concentration (Cmax)
  Cmax: 22300 ng/mL
[1]; male, Sprague-Dawley, rat, in vivo, po, 10 mg/kg, male Sprague-Dawley rats, single PO 10 mg/kg, read-out: terminal half-life (t1/2) (converted)
  half-life: 5.11 h
[2]
  efficacy in the IL-6 evoked grimace test: efficacious
[3]; male, Sprague-Dawley, rat, in vivo, po, 10 mg/kg, single PO 10 mg/kg dose, mean (n = 3)
  MRT inf: 7.43 h
[3]; male, Sprague-Dawley, rat, in vivo, po, 10 mg/kg, single PO 10 mg/kg, read-out: total systemic exposure (AUCinf)
  AUC(0-inf): 272 µg·h/mL
[3]; single PO 10 mg/kg dose, individual animals, 10 mg/kg
  t1/2: 4.83 h and 5.11 h
[3]; single PO 10 mg/kg
  time to peak plasma concentration: ≤ 2 h
